Data on 40 compounds can be found in US20240101531A1, “PYRIDINAMINE DERIVATIVES AND THEIR USE AS POTASSIUM CHANNEL MODULATORS” (Xenon Pharmaceuticals Inc., priority 2022, published 2024).

For orientation: EC50 means the concentration giving half of the maximal effect.

SMILES strings stand for the structures. Where a name gives a salt, the structure may show the parent alone.

The assay concerns the target human KV7.2/KV7.3 (Homo sapiens (Human), UniProt O43525+O43526). Kind of assay: Potassium flux assay (IPG-2 AM dye). The class given is cell-based. The note with it: TREX HEK 293 or HEK 293 cells expressing human KV7.2/KV7.3; arithmetic mean values. The gist of the method:
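EC50 from 16 concentrations (2-fold dilutions, top 30 μM), scaled between DMSO baseline and a known KV7.x modulator maximum. Signal is IPG-2 AM fluorescence (ex 530/em 558 nm) after 10 mM KCl challenge buffer addition, following 20 min room-temperature compound exposure of HEK 293 or TREX HEK 293 cells stably expressing human KV7.2/KV7.3.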
`O=C1OCCN1CCOc1ccc2c(Nc3ccc(Cl)nc3)nccc2c1` [Example 107, 3-(2-((1-((6-chloropyridin-3-yl)amino)isoquinolin-6-yl)oxy)ethyl)oxazolidin-2-one]: the EC50 was in the range of 1000 to 10000 nM.

In the case of `Clc1ncc(Nc2nccc3cc(OCC4COC4)ccc23)cn1` [Example 213, N-(2-chloropyrimidin-5-yl)-6-(oxetan-3-ylmethoxy)isoquinolin-1-amine], the EC50 was below 1000 nM.

Take `CS(=O)(=Nc1ccc2c(Nc3ccc(Cl)nc3)nccc2c1)C1CC1` (stereo in doubt) [Example 274, (S)-((1-((6-chloropyridin-3-yl)amino)isoquinolin-6-yl)imino)(cyclopropyl)(methyl)-λ^6-sulfanone]: the EC50 is below 1000 nM.

For `CS(=O)(=O)C1(COc2ccc3c(Nc4ccc(Cl)nc4)nccc3c2)CC1` [Example 286, N-(6-chloropyridin-3-yl)-6-((1-(methylsulfonyl)cyclopropyl)methoxy)isoquinolin-1-amine], the EC50 lay within 1000 to 10000 nM.

On to `FC(F)C(F)(F)COc1ccc2c(Nc3ccc(Cl)nc3)nccc2c1` [Example 409, N-(6-chloropyridin-3-yl)-6-(2,2,3,3-tetrafluoropropoxy)isoquinolin-1-amine], for which the EC50 was 1000 to 10000 nM.

As to `CO[C@H]1CC[C@@H](Oc2ccc3c(Nc4ccc(Cl)nc4)nccc3c2)CC1` [Example 104, N-(6-chloropyridin-3-yl)-6-(((1s,4s)-4-methoxycyclohexyl)oxy)isoquinolin-1-amine], the EC50 lay within 10000 to 30000 nM.

As for `Cc1ccc(Nc2nccc3cc(OCc4ccncc4)ccc23)cn1` [Example 200, N-(6-methylpyridin-3-yl)-6-(pyridin-4-ylmethoxy)isoquinolin-1-amine], the EC50 fell in the range of 1000 to 10000 nM.

As to `OC(COc1ccc2c(Nc3ccc(Cl)nc3)nccc2c1)C(F)(F)F` (stereo not shown) [Example 240, 3-((1-((6-chloropyridin-3-yl)amino)isoquinolin-6-yl)oxy)-1,1,1-trifluoropropan-2-ol], the EC50 was in the range of 1000 to 10000 nM.

For the compound `FC1(COc2ccc3c(Nc4ccc(Cl)nc4)nccc3c2)COC1` [Example 52, N-(6-chloropyridin-3-yl)-6-((3-fluorooxetan-3-yl)methoxy)isoquinolin-1-amine], the EC50 is below 1000 nM.

As to `COc1ccc(Nc2nccc3cc(OCC4(C)COC4)ccc23)cn1` [Example 67, N-(6-methoxypyridin-3-yl)-6-((3-methyloxetan-3-yl)methoxy)isoquinolin-1-amine], the EC50 was at least 30000 nM.

Take `CC(=O)N[C@H]1CCC[C@@H](Oc2ccc3c(Nc4cnc(Cl)nc4)nccc3c2)C1` [Example 378, N-((1 S,3R)-3-((1-((2-chloropyrimidin-5-yl)amino)isoquinolin-6-yl)oxy)cyclohexyl)acetamide]: the EC50 was below 1000 nM.

Turning to `CC1CN(CCOc2ccc3c(Nc4ccc(Cl)nc4)nccc3c2)CCO1` (stereo not shown) [Example 323, N-(6-chloropyridin-3-yl)-6-(2-(2-methylmorpholino)ethoxy)isoquinolin-1-amine], the EC50 was in the range of 1000 to 10000 nM.

As to `C[C@H](Oc1ccc2c(Nc3ccc(Cl)nc3)nccc2c1)C1(F)CC1` [Example 140, (S)-N-(6-chloropyridin-3-yl)-6-(1-(1-fluorocyclopropyl)ethoxy)isoquinolin-1-amine], the EC50 is below 1000 nM.

In the case of `N#CC1(COc2cnc3c(Nc4cnc(Cl)nc4)nccc3c2)CC1` [Example 254, 1-(((8-((2-chloropyrimidin-5-yl)amino)-1,7-naphthyridin-3-yl)oxy)methyl)cyclopropane-1-carbonitrile], the EC50 was below 1000 nM.

`Fc1cccc2c(Nc3ccc(Cl)nc3)nccc12` [Example 22, N-(6-chloropyridin-3-yl)-5-fluoroisoquinolin-1-amine]: the half-maximal effective concentration (EC50) is 1000 to 10000 nM.

As to `Cc1nn(C)cc1[C@H](C)Oc1ccc2c(Nc3ccc(Cl)nc3)nccc2c1` [Example 175, (S)—N-(6-chloropyridin-3-yl)-6-(1-(1,3-dimethyl-1H-pyrazol-4-yl)ethoxy)isoquinolin-1-amine], the EC50 fell in the range of 1000 to 10000 nM.

For the compound `Clc1ccc(Nc2ncc(NCc3ccccc3)c3cc[nH]c23)cn1` [Example 403, N^4-benzyl-N^7-(6-chloropyridin-3-yl)-1H-pyrrolo[2,3-c]pyridine-4,7-diamine], the concentration giving a half-maximal response (EC50) lay within 10000 to 30000 nM.

As for `O=C(NCC1CC1)c1ccc2c(Nc3ccc(Cl)nc3)nccc2c1` [Example 419, 1-((6-chloropyridin-3-yl)amino)-N-(cyclopropylmethyl)isoquinoline-6-carboxamide], the EC50 is 10000 to 30000 nM.

For `N#CC1(COc2ccc3c(Nc4ccc(Cl)nc4)nccc3c2)CCOCC1` [Example 50, 4-(((1-((6-chloropyridin-3-yl)amino)isoquinolin-6-yl)oxy)methyl)tetrahydro-2H-pyran-4-carbonitrile], the EC50 is below 1000 nM.

As to `CS(=O)(=O)CCCOc1ccc2c(Nc3ccc(Cl)nc3)nccc2c1` [Example 191, N-(6-chloropyridin-3-yl)-6-(3-(methylsulfonyl)propoxy)isoquinolin-1-amine], the EC50 fell in the range of 1000 to 10000 nM.

Consider `COCCS(=O)(=Nc1ccc2c(Nc3ccc(Cl)nc3)nccc2c1)C1CC1` (stereo not shown) [Example 271, ((1-((6-chloropyridin-3-yl)amino)isoquinolin-6-yl)imino)(cyclopropyl)(2-methoxyethyl)-λ^6-sulfanone], for which the EC50 fell in the range of 1000 to 10000 nM.

For the compound `FC1(F)CC(COc2ccc3c(Nc4ccc(Cl)nc4)nccc3c2)C1` [Example 407, N-(6-chloropyridin-3-yl)-6-((3,3-difluorocyclobutyl)methoxy)isoquinolin-1-amine], the EC50 lay in the range of 1000 to 10000 nM.

For `Clc1ccc(Nc2nccc3cc(OCCc4ccccn4)ccc23)cn1` [Example 183, N-(6-chloropyridin-3-yl)-6-(2-(pyridin-2-yl)ethoxy)isoquinolin-1-amine], the concentration giving a half-maximal response (EC50) lay in the range of 1000 to 10000 nM.

Take `Clc1ccc(Nc2nccc3cccnc23)cn1` [Example 31, N-(6-chloropyridin-3-yl)-1,7-naphthyridin-8-amine formate]: the EC50 fell in the range of 1000 to 10000 nM.

As to `C[C@@]1(O)CCC[C@H](Oc2ccc3c(Nc4ccc(Cl)nc4)nccc3c2)C1` [Example 149, (1R,3S)-3-((1-((6-chloropyridin-3-yl)amino)isoquinolin-6-yl)oxy)-1-methylcyclohexan-1-ol], the concentration giving a half-maximal response (EC50) was below 1000 nM.

Regarding `Clc1ccc(Nc2nccc3cc(OCc4cnc(Cc5cccnc5)o4)ccc23)cn1` [Example 158, N-(6-chloropyridin-3-yl)-6-((2-(pyridin-3-ylmethyl)oxazol-5-yl)methoxy)isoquinolin-1-amine], the EC50 was in the range of 1000 to 10000 nM.

Turning to `CS(C)(=O)=Nc1ccc2c(Nc3ccc(Cl)nc3)nccc2c1` [Example 34, ((1-((6-chloropyridin-3-yl)amino)isoquinolin-6-yl)imino)dimethyl-λ^6-sulfanone], the EC50 was in the range of 1000 to 10000 nM.

In the case of `Cc1ncc(Nc2nccc3cc(OCC4(F)CC4)ccc23)cn1` [Example 189, 6-((1-fluorocyclopropyl)methoxy)-N-(2-methylpyrimidin-5-yl)isoquinolin-1-amine], the EC50 is below 1000 nM.

As for `CC1(COc2cnc3c(Nc4ccc(Cl)nc4)nccc3c2)COC1` [Example 259, N-(6-chloropyridin-3-yl)-3-((3-methyloxetan-3-yl)methoxy)-1,7-naphthyridin-8-amine], the concentration giving a half-maximal response (EC50) lay within 1000 to 10000 nM.

As to `CC1(CCc2ccc3c(Nc4ccc(Cl)nc4)nccc3c2)COC1` [Example 341, N-(6-chloropyridin-3-yl)-6-(2-(3-methyloxetan-3-yl)ethyl)isoquinolin-1-amine], the half-maximal effective concentration (EC50) lay in the range of 1000 to 10000 nM.

For the compound `COc1cc(Nc2nccc3cc(OCc4cnn(C)c4)ccc23)cnc1Cl` [Example 54, N-(6-chloro-5-methoxypyridin-3-yl)-6-((1-methyl-1H-pyrazol-4-yl)methoxy)isoquinolin-1-amine], the EC50 is below 1000 nM.

With `C[C@@H](COc1ccc2c(Nc3ccc(Cl)nc3)nccc2c1)c1cnn(C)c1` [Example 159, (R)—N-(6-chloropyridin-3-yl)-6-(2-(1-methyl-1H-pyrazol-4-yl)propoxy)isoquinolin-1-amine], the EC50 lay within 1000 to 10000 nM.

Turning to `C[C@@]1(COc2ccc3c(Nc4ccc(Cl)nc4)nccc3c2)CCCO1` [Example 303, (S)—N-(6-chloropyridin-3-yl)-6-((2-methyltetrahydrofuran-2-yl)methoxy)isoquinolin-1-amine], the EC50 was 1000 to 10000 nM.

Take `CCC1(COc2ccc3c(Nc4ccc(Cl)nc4)nccc3c2)COC1` [Example 328, N-(6-chloropyridin-3-yl)-6-((3-ethyloxetan-3-yl)methoxy)isoquinolin-1-amine]: the half-maximal effective concentration (EC50) was below 1000 nM.

`Clc1ccc(Nc2nccc3cc(OCC45CCCN4CCC5)ccc23)cn1` [Example 115, N-(6-chloropyridin-3-yl)-6-((tetrahydro-1H-pyrrolizin-7a(5H)-yl)methoxy)isoquinolin-1-amine]: the EC50 is at least 30000 nM.

In the case of `N#CC1(Oc2ccc3c(Nc4cnc(Cl)nc4)nccc3c2)CC1` [Example 60, 1-((1-((2-chloropyrimidin-5-yl)amino)isoquinolin-6-yl)oxy)cyclopropane-1-carbonitrile], the EC50 was in the range of 1000 to 10000 nM.

Consider `Clc1ccc(Nc2nccc3cc[nH]c23)cn1` [Example 14, N-(6-chloropyridin-3-yl)-1H-pyrrolo[2,3-c]pyridin-7-amine], for which the EC50 lay in the range of 1000 to 10000 nM.

Consider `CC(Oc1ccc2c(Nc3ccc(Cl)nc3)nccc2c1)c1cnn(C)c1` (racemic) [Example 170, N-(6-chloropyridin-3-yl)-6-(1-(1-methyl-1H-pyrazol-4-yl)ethoxy)isoquinolin-1-amine], for which the EC50 is below 1000 nM.

For the compound `Clc1ccc(Nc2nccc3sccc23)cn1` [Example 11, N-(6-chloropyridin-3-yl)thieno[3,2-c]pyridin-4-amine formate], the EC50 lay in the range of 1000 to 10000 nM.

For the compound `CC(=O)N[C@@H]1CCC[C@H](Oc2ccc3c(Nc4cnc(Cl)nc4)nccc3c2)C1` [Example 376, N-((1R,3S)-3-((1-((2-chloropyrimidin-5-yl)amino)isoquinolin-6-yl)oxy)cyclohexyl)acetamide], the EC50 was below 1000 nM.
